Literature values in US9399025B2, “Modified release dosage forms of skeletal muscle relaxants” (APTALIS PHARMATECH, INC., priority 2003, dated 2016).

SMILES: CN(C)CCC=C1c2ccccc2C=Cc2ccccc21 [Cyclobenzaprine]
- Elimination half-life (after oral administration): one to three
- Absorption after oral administration (oral): well absorbed
